Literature values, collected in patent US9173863B2, “Antiviral compound and COX-2 inhibitor combination therapy for functional somatic syndromes, including combination of famciclovir and celecoxib” (INNOVATIVE MED CONCEPTS, LLC, priority 2012, dated 2015).

Tested on: fibromyalgia patients
Settings: valacyclovir alone

## CC(C)[C@H](N)C(=O)OCCOCn1cnc2c(=O)[nH]c(N)nc21 [valacyclovir]
  Treatment outcome in fibromyalgia patients: not successful
